# Test results taken from patent US10300048B2, “Thiazolidinones as cellular anandamide uptake inhibitors and their use in the treatment of psychiatric or neurological disorders and inflammation, in particular neuroinflammation” (UNIVERSITAT BERN, priority 2014, dated 2019).
# pIC50: −log10 of the molar value. Like-named read-outs stand apart in the source and are kept apart here.
# Key:
# [1] = test system: AEA cellular uptake, U937 cells; assay: [3H]-AEA cellular uptake inhibition in U937 cells; format: cell-based; conditions: for pIC50: U937 cells
# Protocol: [^3H]-AEA Cellular Uptake
# Screening for AEA cellular uptake inhibition was performed in a semi-automated procedure: Pipetting and washing steps were performed by a Biomek3000 laboratory workstation. First, required amounts of U937 cells were centrifuged at 100×g for 5 min and resuspended in RPMI (37° C.) to a final concentration of 2×10^6 cells/mL. Then, 250 μL of cell suspension (0.5×10^6 cells per sample) were transferred into AquaSil™ silanized glass vials (Chromacol 1.1-MTV) in 96-well format. After addition of 5 μL vehicle (DMSO) or compounds the cells were incubated at 37° C. for 15 min. As positive controls OMDM-2 and UCM707 were used at 10 μM in each run. The ETI-T compounds were measured at up to 7 concentrations in triplicates from 100 pM-100 μM. After pre-incubation, a mixture of 0.5 nM[ethanolamine-1-^3H]-AEA, (60 Ci/mmol) and 99.5 nM of cold AEA (final 100 nM) was added and samples were incubated at 37° C. for another 15 min. The reaction was stopped by rapid filtration over UniFilter-96 GF/C filters (PerkinElmer) pre-soaked with PBS 0.25% BSA. Cells were washed three times with 100 μL ice-cold PBS buffer containing 1% fatty acid free BSA. After drying, 45 μL MicroScint 20 scintillation cocktail (PerkinElmer, Waltham, Mass., US) was added to the wells and the plate was sealed. Radioactivity was measured by liquid scintillation counting on a PerkinElmer Wallac Trilux MicroBeta 1450 during 2 min. Non-specific binding of [^3H]AEA (100 nM) to the glass vials was never higher than 10%. IC50 values were calculated by GraphPad® by non-linear regression using the built-in log(inhibitor) vs. response-variable slope (four parameters) function.
# (§1) Statistical analysis and IC50 values were determined using GraphPad® Prism 5.0 (GraphPad® Software, San Diego, Calif., US). Inhibition curves were obtained by non-linear regression using the built-in log(inhibitor) vs. response-variable slope (four parameters) function. Results were calculated as % of vehicle control of the corresponding fraction (cells, aqueous phase) if not mentioned else. In vivo results are shown in absolute values and were analyzed by a one-way ANOVA following a Tukey's multiple comparison test or student's t-test. If not indicated else the results were compared vs. vehicle (CTRL). *** P<0.001, ** P<0.01, * P<0.05, ns=not significant P>0.05.
# hCB1 receptor = hCB1 receptor (Homo sapiens (Human), UniProt P21554); assay: Radioligand CB receptor binding, [3H]-CP55,940 displacement on CHO-K1 hCB1 membranes; conditions: for CB1 receptor binding (%) at 10 µM: Table 4; for CB1 receptor binding % binding at 10 μM: Table 3
# Protocol: Stably transfected CHO-K1 cells expressing hCB1 or hCB2 receptors (Gertsch et al., 2008, Proc Natl Acad Sci 105, 9099-104) were cultured in T150 cm^2 flasks up to 90% confluence. The medium was removed and cells were washed twice with PBS, 37° C. 10 mL of PBS was added and the cells were scraped and transferred into a falcon tube following homogenization by a Polytron PT1300D for 5 min at 30 krpm. Then, the homogenate was centrifuged (1400×g, 5 min) to remove debris. The supernatant was subjected to ultracentrifugation (64000×g, 45 min, 4° C.) to separate cytosolic from the membrane fraction. The supernatant was discharged and the pellet resuspended in PBS by sonication. Protein quantity was determined by BCA assay (Thermo Scientific) and aliquots of 500 μL were stored at −80° C. until use.
# Radioligand CB Receptor Binding
# Binding properties of ETI-T compounds to hCB1 or hCB2 receptors were performed as previously reported in a [^3H]-CP55,940 displacement assay (Gertsch et al., 2008, Proc Natl Acad Sci 105, 9099-104). WIN 55,212-2 was used as positive control. In brief, 20 μg protein of CHO-K1 hCB1 or hCB2 membrane preparations were thawed on ice and resuspended in a final volume of 500 μL binding buffer (50 mM Tris-HCl, 2.5 mM EDTA, 5 mM MgCl2, 0.5% fatty acid free BSA, pH 7.4) in silanized glass vials. [^3H]-CP55,940 (168 Ci/mmol) (PerkinElmer, Waltham, Mass., US) was added to a final concentration of 0.5 nM followed by the addition of competitors or vehicle in 5 μL DMSO. Membrane binding was equilibrated for 2 h at room temperature (25° C.). Samples were filter through a 0.1% polyethylenimine pre-soaked UniFilter®-96 GF/B plate (PerkinElmer) and washed twelve times with 167 μL ice-cold assay-buffer. The plate was dried, bottom sealed and 45 μL MicroScint 20 scintillation cocktail (PerkinElmer) were added before measured on a PerkinElmer 1450 Microbeta TRILUX liquid scintillation counter. Unspecific binding was determined by WIN 55,212-2, 10 μM and subtracted from all values. […].
# FAAH = FAAH (Homo sapiens (Human), UniProt O00519); assay: FAAH activity: hydrolysis of [3H]-AEA in U937 cell homogenates; format: biochemical; conditions: for pIC50: U937 cell homogenate, read-out: FAAH inhibition IC50
# Protocol: Hydrolysis of [^3H]-AEA by FAAH was determined as previously described in cell homogenates of U937 cells (0.18 mg protein) (Omeir et al., 1999, Biochem Biophys Res Commun, 264, 316-20; Mor et al., 2004, J Med Chem, 47, 4998-5008). Protein amounts of cell homogenates corresponded to 0.5×10^6 cells (U937), to assure best possible comparability of IC50 values as used for the AEA cellular uptake assays. URB597 was used as positive control. Protein quantification was performed using a BCA assay (Thermo Scientific). Enzyme activity was assessed by addition of vehicle or compounds in 10 μL DMSO to 490 μL homogenate in 10 mM Tris HCl, 1 mM EDTA, 0.1% (w/v) BSA fatty acid free, pH=8 and incubation for 15 min at 37° C. After, a mixture of AEA plus [ethanolamine-1-^3H]-AEA (0.5 nM) at final 100 nM was added to the homogenates and incubated for 15 min at 37° C. The reaction was stopped by addition of 1 mL ice-cold CHCl3:MeOH (1:1) followed by vigorous vortexing. Phase separation was achieved by centrifugation at 10′000×g at 4° C. for 10 min. Radioactivity of the separated aqueous phase (upper phase) containing [^3H-ethanolamine] or [^3H-glycerol] was measured by liquid scintillation counting on a Tri-Carb 2100 TR liquid scintillation analyzer after addition of 3.5 mL Ultima Gold scintillation cocktail (PerkinElmer Life Sciences). Results are expressed as hydrolysis of tritium substrate in percent of vehicle treated control. IC50 values were calculated by GraphPad®. Data are reported as means of n=3 independent experiments performed in triplicates.
# as §1
# [2] = Homo sapiens, U-937, Table 4, read-out: AEA uptake IC50
# [3] = Homo sapiens, U-937, Table 1, 100 nM AEA, read-out: AEA uptake inhibition IC50
# FAAH, sequence (O00519 whole entry): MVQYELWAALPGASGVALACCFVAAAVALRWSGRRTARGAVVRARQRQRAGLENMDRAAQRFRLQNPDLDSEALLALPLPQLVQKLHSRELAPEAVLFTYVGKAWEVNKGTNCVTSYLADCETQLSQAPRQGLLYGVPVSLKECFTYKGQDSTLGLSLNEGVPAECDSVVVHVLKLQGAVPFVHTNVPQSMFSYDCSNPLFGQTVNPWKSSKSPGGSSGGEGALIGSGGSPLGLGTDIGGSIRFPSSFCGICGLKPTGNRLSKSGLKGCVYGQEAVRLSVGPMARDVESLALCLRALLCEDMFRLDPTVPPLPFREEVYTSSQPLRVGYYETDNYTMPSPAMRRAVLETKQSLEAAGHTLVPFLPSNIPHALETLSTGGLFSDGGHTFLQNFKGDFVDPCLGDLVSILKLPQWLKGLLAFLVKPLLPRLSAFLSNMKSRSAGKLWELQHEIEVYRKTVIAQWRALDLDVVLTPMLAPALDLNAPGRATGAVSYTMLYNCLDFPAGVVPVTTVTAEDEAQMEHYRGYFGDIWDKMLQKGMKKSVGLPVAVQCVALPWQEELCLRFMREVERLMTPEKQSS
# hCB1 receptor, sequence (P21554 whole entry): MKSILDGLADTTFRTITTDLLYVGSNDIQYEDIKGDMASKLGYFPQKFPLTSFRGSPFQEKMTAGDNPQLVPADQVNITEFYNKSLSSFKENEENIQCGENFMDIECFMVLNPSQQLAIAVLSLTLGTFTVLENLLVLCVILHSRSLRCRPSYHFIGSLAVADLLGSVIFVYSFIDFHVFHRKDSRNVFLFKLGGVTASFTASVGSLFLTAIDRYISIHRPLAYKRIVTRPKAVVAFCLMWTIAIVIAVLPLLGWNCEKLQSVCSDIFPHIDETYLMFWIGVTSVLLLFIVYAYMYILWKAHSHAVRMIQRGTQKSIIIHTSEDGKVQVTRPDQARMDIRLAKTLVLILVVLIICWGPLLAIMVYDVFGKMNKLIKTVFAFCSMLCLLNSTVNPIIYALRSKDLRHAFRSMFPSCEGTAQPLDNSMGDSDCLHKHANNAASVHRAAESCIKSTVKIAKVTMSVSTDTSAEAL
SMILES,"pIC50 [1, 2]","pIC50 [1, 3]",CB1 receptor binding (%) at 10 µM (hCB1 receptor) [%],other results
CCN1C(=O)/C(=C/c2ccc(C)cc2)S/C1=N\c1ccc(OC)cc1 [Compound 9],6.48,6.48,,
CCCOc1cc(/C=C2\S/C(=N\c3ccccc3C)N(c3ccccc3C)C2=O)ccc1O [Compound 15],6.26,6.26,,
CCN1C(=O)/C(=C/c2ccc(O)cc2)S/C1=N\c1ccc(F)cc1 [Compound 8],6.57,6.57,,
Cc1ccc(/N=C2\S/C(=C\c3ccc(O)c(Cl)c3)C(=O)N2c2ccc(C)cc2)cc1 [ETI-T-444],5.94,,,
COc1ccc(C=C2SC(=Nc3ccc(F)cc3)N(c3ccc(F)cc3)C2=O)cc1OC [ETI-T-343],5.80,,,
COc1ccc(/N=C2\S/C(=C\c3ccc(O)cc3)C(=O)N2c2ccc(OC)cc2)cc1 [Compound 18],6.22,6.22,,
CN(C)c1ccc(/C=C2\S/C(=N\c3ccccc3)N(C3CCCCC3)C2=O)cc1 [ETI-T-385],5.97,,40,pIC50 (FAAH; Table 4): 6.01
CCOc1cc(/C=C2/S/C(=N/c3ccc(F)cc3)N(c3ccc(F)cc3)C2=O)ccc1O [ETI-T-438],5.87,,,
C=CCc1cc(/C=C2/S/C(=N/c3ccc(C)cc3)N(C)C2=O)cc(OCC)c1O [ETI-T-399],5.88,,41,
COc1ccc(/C=C2\S/C(=N\c3ccccc3)N(c3ccccc3)C2=O)cc1 [Compound 14],6.27,6.27,,
COc1ccc(/C=C2\S/C(=N\c3ccc(C)cc3)N(c3ccc(C)cc3)C2=O)cc1 [Compound 19],6.22,6.22,,
CCCN1C(=O)/C(=C/c2ccc(N(C)C)cc2)S/C1=N\c1ccccc1 [Compound 10],6.45,6.45,29,pIC50 (FAAH; Table 4): 5.98
CCN1C(=O)/C(=C/c2cc(I)c(O)c(OC)c2)S/C1=N\c1ccccc1 [Compound 17],6.23,6.23,,
CCOc1cc(/C=C2/S/C(=N\c3ccc(C)c(Cl)c3)N(c3ccc(C)c(Cl)c3)C2=O)ccc1O [ETI-T-435],5.85,,,
CCCCN1C(=O)/C(=C/c2cc(Br)c(O)c(OCC)c2)S/C1=N\c1ccccc1 [ETI-T-401],5.80,,42,
CCOc1cc(/C=C2\S/C(=N\c3ccc(C)cc3)N(c3ccc(C)cc3)C2=O)ccc1O [Compound 12],6.32,6.32,35,CB1 receptor binding % binding at 10 μM (hCB1 receptor): 35%; pIC50 (FAAH; Table 2): < 4.00
O=C1/C(=C/c2ccc(O)cc2)S/C(=N\c2ccccc2)N1Cc1ccco1 [Compound 11],6.36,6.36,,
C=CCc1cc(/C=C2\S/C(=N\c3ccc(C(=O)OC)cc3)N(C)C2=O)cc(OCC)c1O [Compound 16],6.24,6.24,15,CB1 receptor binding % binding at 10 μM (hCB1 receptor): 15%; pIC50 (FAAH; Table 2): < 4.00
CCOc1cc(/C=C2\S/C(=N\c3cc(Cl)ccc3C)NC2=O)ccc1O [Compound 3],,,,"pIC50 ([1]; Table 1, 100 nM AEA, read-out: AEA uptake inhibition IC50): 6.86"
C#CCOc1ccc(/C=C2\S/C(=N\c3ccc(OC)cc3)N(CCc3c[nH]c4ccccc34)C2=O)cc1 [Compound 7],6.58,6.58,,

# Further lines, with some results ahead:
"pIC50 [1, 2]","pIC50 [1, 3]",CB1 receptor binding (%) at 10 µM (hCB1 receptor) [%],SMILES,other results
5.98,,,CCOc1cc(/C=C2/S/C(=N/c3ccc(OC)cc3)N(c3ccc(OC)cc3)C2=O)ccc1O [ETI-T-445],
6.10,6.10,45,Cc1ccc(/N=C2\S/C(=C\c3ccc(O)c(Cl)c3)C(=O)N2c2ccc(C)c(Cl)c2)cc1Cl [Compound 21],pIC50 (FAAH; Table 4): 4.23
5.84,,60,CCCN1C(=O)/C(=C/c2ccc3c(c2)OCO3)S/C1=N\c1ccc(OC)cc1 [ETI-T-426],
6.84,6.84,,C=CCCc1cc(/C=C2\SC(=NCC)N(CC)C2=O)cc(OCC)c1O [Compound 4],
7.13,7.13,33,CCOc1cc(/C=C2\S/C(=N\c3ccc(F)cc3)N(c3ccc(F)cc3)C2=O)ccc1O [Compound 2],apparent selectivity for AEA uptake inhibition over FAAH inhibition ([1]; ratio of FAAH IC50 to AEA uptake IC50): ~760 fold; CB1 receptor binding % binding at 10 μM (hCB1 receptor): 33%; FAAH inhibition (in words) (FAAH): Lack of FAAH inhibition; pIC50 (FAAH; Table 2): 4.25; pIC50 (FAAH; Table 4): 4.25
6.18,6.18,,C=CCc1cc(/C=C2\S/C(=N\c3ccccc3)N(Cc3ccco3)C2=O)cc(OC)c1O [Compound 20],
6.05,6.05,34,C/C=C/c1cc(/C=C2\S/C(=N\c3ccccc3)N(CCOC)C2=O)cc(OCC)c1O [Compound 22],pIC50 (FAAH; Table 4): < 4.00
5.89,,,CCOc1cc(/C=C2\S/C(=N\c3ccccc3)N(CCOC)C2=O)ccc1O [ETI-T-410],
5.90,,,COc1cc(/C=C2\S/C(=N\c3ccc(C)cc3)N(c3ccc(C)cc3)C2=O)ccc1O [ETI-T-008 Jspg],pIC50 (FAAH; Table 4): 5.27
6.29,6.29,,Cc1ccsc1/C=C1\S/C(=N\c2ccccc2)N(C(C)C)C1=O [Compound 13],
7.17,7.17,33,Cc1ccc(/N=C2\S/C(=C\c3ccc(O)cc3)C(=O)N2c2ccc(C)cc2)cc1 [Compound 1],
